Experimental data taken from patent publication US12390451B2, “Small molecule inhibitor of the JAK family of kinases” (Janssen Pharmaceutica NV, priority 2021, dated 2025).
Like-named read-outs stand apart in the source and are kept apart here.

What was measured:
JAK1/Tyk2 [1] = biological target: T1, JAK1/Tyk2 (Homo sapiens, UniProt P23458+P29597); experiment: IFNα-induced pSTAT-3 in human whole blood; format: cell-based; conditions: mean
T1 construct: endogenous in cells; host or cells: human whole blood
Experimental: Compound of Formula I presents low levels of systemic exposure after oral administration. To understand the relationship between systemic exposure and target engagement in human studies, the inhibition of cytokine-induced pSTAT-3 in human whole blood was measured with such compound. In human whole blood, compound of Formula I in a concentration-dependent manner inhibited the JAK1, JAK2, JAK3, and Tyk2 homo- and heterodimers downstream of IFNα (JAK1/Tyk2), thrombopoietin (TPO) (JAK2/JAK2), and IL-21 (JAK1/JAK3) signaling.

JAK1/Tyk2 [2] = biological target: T2, JAK1/Tyk2 (Mus musculus, UniProt P52332+Q9R117); experiment: IFNα-induced pSTAT-3 in murine whole blood; format: cell-based
T2 construct: endogenous in cells; host or cells: murine whole blood
T2 sequence (P52332 whole entry): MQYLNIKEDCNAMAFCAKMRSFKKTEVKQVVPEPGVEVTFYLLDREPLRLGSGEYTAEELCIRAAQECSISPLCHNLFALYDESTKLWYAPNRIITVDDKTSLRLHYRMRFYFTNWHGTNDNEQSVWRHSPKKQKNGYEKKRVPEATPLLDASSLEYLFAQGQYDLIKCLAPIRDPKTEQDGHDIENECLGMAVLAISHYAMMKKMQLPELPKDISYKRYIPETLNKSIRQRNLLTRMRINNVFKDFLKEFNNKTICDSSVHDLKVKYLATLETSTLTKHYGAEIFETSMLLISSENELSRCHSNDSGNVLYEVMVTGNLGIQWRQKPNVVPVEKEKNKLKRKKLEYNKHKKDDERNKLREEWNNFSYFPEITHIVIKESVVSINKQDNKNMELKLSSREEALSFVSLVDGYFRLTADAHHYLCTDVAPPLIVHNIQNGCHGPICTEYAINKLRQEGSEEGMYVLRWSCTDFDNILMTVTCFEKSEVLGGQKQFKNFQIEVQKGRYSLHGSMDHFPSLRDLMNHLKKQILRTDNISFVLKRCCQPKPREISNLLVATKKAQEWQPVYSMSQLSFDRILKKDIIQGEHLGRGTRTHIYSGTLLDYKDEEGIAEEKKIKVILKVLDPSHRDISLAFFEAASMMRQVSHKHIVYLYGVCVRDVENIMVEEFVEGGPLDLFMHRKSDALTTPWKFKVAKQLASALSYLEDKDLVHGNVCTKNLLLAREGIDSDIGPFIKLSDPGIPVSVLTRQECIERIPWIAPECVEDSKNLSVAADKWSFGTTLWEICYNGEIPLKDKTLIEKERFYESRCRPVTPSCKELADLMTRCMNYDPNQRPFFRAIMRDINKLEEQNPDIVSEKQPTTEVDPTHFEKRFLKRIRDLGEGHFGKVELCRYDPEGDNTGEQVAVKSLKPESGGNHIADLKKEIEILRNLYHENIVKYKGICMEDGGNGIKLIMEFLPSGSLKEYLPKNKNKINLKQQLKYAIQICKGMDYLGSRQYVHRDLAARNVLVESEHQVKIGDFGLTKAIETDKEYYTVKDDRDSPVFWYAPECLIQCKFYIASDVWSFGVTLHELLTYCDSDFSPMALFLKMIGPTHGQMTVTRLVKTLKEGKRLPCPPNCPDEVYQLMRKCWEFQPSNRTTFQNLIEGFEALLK
T2 sequence (Q9R117 whole entry): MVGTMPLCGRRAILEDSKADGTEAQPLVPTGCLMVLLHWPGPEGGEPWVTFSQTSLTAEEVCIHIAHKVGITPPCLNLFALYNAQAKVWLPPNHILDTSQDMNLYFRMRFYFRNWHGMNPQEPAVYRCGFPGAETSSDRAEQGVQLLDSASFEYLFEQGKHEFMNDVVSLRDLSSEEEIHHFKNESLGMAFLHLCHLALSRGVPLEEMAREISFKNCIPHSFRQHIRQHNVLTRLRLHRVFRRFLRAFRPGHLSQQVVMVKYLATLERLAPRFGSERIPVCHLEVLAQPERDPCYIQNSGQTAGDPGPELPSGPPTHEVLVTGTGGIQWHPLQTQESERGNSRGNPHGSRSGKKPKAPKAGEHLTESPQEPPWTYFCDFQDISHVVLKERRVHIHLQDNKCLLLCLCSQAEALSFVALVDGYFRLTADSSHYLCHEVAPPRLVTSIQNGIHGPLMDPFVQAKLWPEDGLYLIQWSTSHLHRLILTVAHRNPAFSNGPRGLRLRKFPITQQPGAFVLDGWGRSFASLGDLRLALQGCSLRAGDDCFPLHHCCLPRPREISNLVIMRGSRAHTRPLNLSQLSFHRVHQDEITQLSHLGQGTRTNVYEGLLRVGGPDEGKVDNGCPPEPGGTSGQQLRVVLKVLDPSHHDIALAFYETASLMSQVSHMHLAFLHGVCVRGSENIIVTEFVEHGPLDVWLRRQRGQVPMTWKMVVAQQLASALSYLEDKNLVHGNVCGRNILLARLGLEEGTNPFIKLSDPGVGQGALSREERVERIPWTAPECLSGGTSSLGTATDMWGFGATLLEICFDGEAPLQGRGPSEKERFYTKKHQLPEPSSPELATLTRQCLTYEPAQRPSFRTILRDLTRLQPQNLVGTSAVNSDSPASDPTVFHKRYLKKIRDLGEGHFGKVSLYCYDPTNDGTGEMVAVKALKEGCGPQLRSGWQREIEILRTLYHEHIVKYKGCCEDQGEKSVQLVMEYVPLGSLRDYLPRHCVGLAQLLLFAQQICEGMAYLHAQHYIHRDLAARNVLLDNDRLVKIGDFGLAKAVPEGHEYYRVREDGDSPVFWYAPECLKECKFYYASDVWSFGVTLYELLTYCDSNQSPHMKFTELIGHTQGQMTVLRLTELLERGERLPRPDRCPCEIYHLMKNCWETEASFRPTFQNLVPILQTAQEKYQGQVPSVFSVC
T2 sequence (P33896 27-590 partner): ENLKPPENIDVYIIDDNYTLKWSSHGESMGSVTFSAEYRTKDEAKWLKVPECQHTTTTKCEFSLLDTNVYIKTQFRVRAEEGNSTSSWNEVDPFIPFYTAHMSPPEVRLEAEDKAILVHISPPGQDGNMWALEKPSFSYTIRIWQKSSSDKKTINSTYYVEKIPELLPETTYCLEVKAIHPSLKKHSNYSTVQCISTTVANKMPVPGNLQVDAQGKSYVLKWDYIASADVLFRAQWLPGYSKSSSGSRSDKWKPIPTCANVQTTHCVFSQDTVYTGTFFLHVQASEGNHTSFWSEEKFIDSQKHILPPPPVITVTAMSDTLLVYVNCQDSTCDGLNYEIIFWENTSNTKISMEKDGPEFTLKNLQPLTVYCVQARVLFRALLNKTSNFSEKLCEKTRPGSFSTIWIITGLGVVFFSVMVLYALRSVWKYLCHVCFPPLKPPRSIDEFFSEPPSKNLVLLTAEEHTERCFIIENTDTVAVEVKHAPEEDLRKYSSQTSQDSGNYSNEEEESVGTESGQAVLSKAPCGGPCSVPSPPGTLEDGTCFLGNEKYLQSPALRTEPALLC
T2 sequence (O35664 22-513 partner): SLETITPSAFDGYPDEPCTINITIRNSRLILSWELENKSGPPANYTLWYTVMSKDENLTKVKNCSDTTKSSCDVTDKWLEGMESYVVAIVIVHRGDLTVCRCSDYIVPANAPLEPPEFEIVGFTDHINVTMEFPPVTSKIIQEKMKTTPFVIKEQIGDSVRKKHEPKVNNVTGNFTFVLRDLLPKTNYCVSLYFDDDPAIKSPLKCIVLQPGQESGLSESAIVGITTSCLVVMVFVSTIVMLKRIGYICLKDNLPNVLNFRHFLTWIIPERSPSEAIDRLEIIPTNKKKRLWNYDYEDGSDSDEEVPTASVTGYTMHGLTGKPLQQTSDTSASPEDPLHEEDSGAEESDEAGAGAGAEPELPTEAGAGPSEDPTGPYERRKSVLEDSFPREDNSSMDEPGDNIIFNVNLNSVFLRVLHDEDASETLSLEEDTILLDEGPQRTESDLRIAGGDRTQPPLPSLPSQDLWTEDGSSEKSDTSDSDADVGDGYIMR
Experimental: Mouse whole blood IC50 values were also generated to build an understanding of the relationship between systemic exposures and target engagement in murine models. In murine whole blood, the in vitro activity of compound of Formula I in the inhibition of IFNα-(JAK1/Tyk2), IL-21-(JAK1/3), and IL-12-(JAK2/Tyk2) induced pSTAT responses in murine whole blood was measured. […] No reliable IC50 could be reported for inhibition of IL-12 induced pSTAT-4 in murine whole blood.

[3] = tested on: IL-22/IL-6/IFNα-induced pSTAT-3 response; experiment: Ex vivo mouse colon explant model (IL-22/IL-6/IFNα) after oral dosing; format: in vivo, C57BL/6 mice; conditions: for inhibition at 0.5 mg/kg: oral 0.5 mg/kg; for inhibition at 2.5 mg/kg: oral 2.5 mg/kg; for inhibition at 5 mg/kg: oral 5 mg/kg; for inhibition at 25 mg/kg: oral 25 mg/kg
Source text: To understand the potential of local, enteric-selective JAK inhibitors to inhibit STAT signaling in colon tissue, two pharmacokinetic/pharmacodynamic (PK/PD) studies were developed. The first involved the combined intraperitoneal administration of IL-12 and IL-18 in mice which induces a systemic inflammatory response resulting in activation of the JAK/STAT pathway in colonic tissue which can be monitored by robust phosphorylation of STAT3 three hours after challenge. The second PK/PD model involves the ex vivo stimulation of mouse colon tissue with a cocktail of cytokines (IL-22, IL-6, and IFNα), measuring the inhibition of STAT3 phosphorylation after oral dosing of compound of Formula I.
In addition to the IL-12/IL-18 model described above, local efficacy of compound of Formula I was further established in a mouse cytokine mixture (IL-22/IL-6/IFNα) colon explant model. A combination of IL-22, IL-6 and IFNα induced a rapid and robust pSTAT-3 response in mouse colon explants ex vivo 1 hour post challenge. This study aimed at examining the dose response and duration of action of compound of Formula I on IL 22/IL 6/IFNα-induced pSTAT-3 response in an ex vivo mouse colon explant model.
C57BL/6 mice (6 to 8 weeks old) were randomized by weight and assigned to various treatment groups for each study. Mice were dosed orally with indicated doses of compound of Formula I. At the termination of the study, blood was collected via cardiocentesis, serum and washed proximal colon was prepared for PK analysis.
Distal colon explants (approximately 3 mm^2) were either untreated or treated with cytokines (IL 6, IL-22, IFNα at 100 ng/mL each). Following stimulation for 1 hour, tissue was snap-frozen for homogenization and assayed for pSTAT-3.

[4] = Tissue distribution in mice after oral administration; format: in vivo, female C57Bl/6 mice; conditions: oral 10 mg/kg; for concentration at 0.5 h / concentration at 1 h / concentration at 2 h / concentration at 3 h / concentration at 5 h / concentration at 7 h / concentration at 24 h: female, C57Bl/6, mouse
Experimental: Limited tissue (liver, intestine) distribution studies were conducted in female C57Bl/6 mice ([…]) at 0.5, 1, 2, 3, 5, 7, and 24 hours following oral administration of compound of Formula 1 at a dose of 10 mg/kg formulated as a solution in 20% HP-β-CD. The plasma and the following tissues were harvested for compound concentration analysis: liver, whole ileum, and whole colon. The ileum and colon were flushed with saline prior to homogenization. Feces were collected over a period of 24 hours. All tissues (except plasma) were homogenized in sterile water and compound of Formula I concentrations were determined using LC-MS/MS. […] The concentration of compound of Formula I in feces was 125.6 μg at 24 hours post dose.

[5] = SS-1, mice, read-out: inhibition of IL-22/IL-6/IFNα-stimulated pSTAT-3 response in colon explants
[6] = SS-1, mice, read-out: inhibition of basal pSTAT-3 response in colon explants
[7] = SS-2, mice, read-out: inhibition of IL-22/IL-6/IFNα-stimulated pSTAT-3 in colon explants
[8] = SS-2, mice, read-out: inhibition of basal pSTAT-3 in colon explants
[9] = colon, mean ± SD, read-out: Colon concentration
[10] = ileum, mean ± SD, read-out: Ileum concentration
[11] = liver, mean ± SD, read-out: Liver concentration
[12] = plasma, mean ± SD, read-out: Plasma concentration

CC(C)(O)CNC(=O)Cc1nc2cnc3[nH]ccc3c2n1[C@H]1CC[C@H](CC#N)CC1 [Compound of Formula I, 2-(1-((1r,4r)-4-(Cyanomethyl)cyclohexyl)-1,6-dihydroimidazo[4,5-d]pyrrolo[2,3-b]pyridin-2-yl)-N-(2-hydroxy-2-methylpropyl)acetamide]
IC50 (JAK1/Tyk2 [1]): 0.105 µM | IC50 (JAK1/Tyk2 [2]): 0.299 µM | inhibition at 0.5 mg/kg [3, 5]: 42.7% | inhibition at 0.5 mg/kg [3, 6]: 54.3% | inhibition at 2.5 mg/kg [3, 5]: 74.9% | inhibition at 2.5 mg/kg [3, 6]: 74.4% | inhibition at 5 mg/kg [3, 5]: 83.8% | inhibition at 5 mg/kg [3, 6]: 78.6% | inhibition at 25 mg/kg [3, 5]: 93.8% | inhibition at 25 mg/kg [3, 6]: 89.5% | inhibition at 0.5 mg/kg [3, 7]: 5.5% | inhibition at 0.5 mg/kg [3, 8]: 36.7% | inhibition at 2.5 mg/kg [3, 7]: 62% | inhibition at 2.5 mg/kg [3, 8]: 66.2% | inhibition at 5 mg/kg [3, 7]: 68.1% | inhibition at 5 mg/kg [3, 8]: 71.3% | inhibition at 25 mg/kg [3, 7]: 89.8% | inhibition at 25 mg/kg [3, 8]: 83.8% | concentration at 0.5 h ([4]; colon, N = 2, read-out: Colon concentration): 94.2 ng/g | concentration at 1 h [4, 9]: 5110 ng/g | concentration at 2 h [4, 9]: 6620 ng/g | concentration at 3 h [4, 9]: 7760 ng/g | concentration at 5 h [4, 9]: 8450 ng/g | concentration at 7 h [4, 9]: 3790 ng/g | concentration at 24 h ([4]; colon, 24 h, mean ± SD, read-out: Colon concentration): 195 ± 120 ng/g | concentration at 0.5 h [4, 10]: 73.8 ± 11.6 ng/g | concentration at 1 h [4, 10]: 22700 ng/g | concentration at 2 h [4, 10]: 12000 ng/g | concentration at 3 h [4, 10]: 16400 ng/g | concentration at 5 h [4, 10]: 3440 ng/g | concentration at 7 h [4, 10]: 2250 ng/g | concentration at 24 h ([4]; ileum, 24 h, mean ± SD, read-out: Ileum concentration): 87.6 ± 17.8 ng/g | concentration at 0.5 h [4, 11]: 34.8 ± 16.5 ng/g | concentration at 1 h [4, 11]: 189 ± 304 ng/g | concentration at 2 h [4, 11]: 84.5 ± 114 ng/g | concentration at 3 h [4, 11]: 23.3 ± 0.8 ng/g | concentration at 5 h [4, 11]: 16.8 ± 8.8 ng/g | concentration at 7 h ([4]; liver, N = 2, read-out: Liver concentration): 24 ng/g | concentration at 0.5 h [4, 12]: 3.5 ± 1.8 ng/mL | concentration at 1 h [4, 12]: 2.6 ± 0.9 ng/mL | concentration at 2 h [4, 12]: 2.3 ± 0.2 ng/mL | concentration at 3 h [4, 12]: 3.2 ± 1.7 ng/mL | concentration at 5 h [4, 12]: 2.1 ± 0.9 ng/mL | concentration at 7 h [4, 12]: 6 ± 4.9 ng/mL | Liver concentration ([4]; 24 h, BLOQ (1 ng/mL)): BLOQ^b | Plasma concentration ([4]; 24 h, BLOQ (1 ng/mL)): BLOQ^b | concentration in feces ([4]; 24 hours post dose): 125.6 µg
